Results on three compounds are retold here after US4820694A, “Modifications of 3-O-demethylmycinose in macrocin and lactenocin” (priority 1986, dated 1989).

For one test, the system named is Escherichia coli EC14. The test can be described thus: standard agar-dilution MIC assay. It is filed as cell-based. How it is done:
(§1) The MIC's in Table III were determined by standard agar-dilution assays. The MIC's in Table IV were obtained using conventional brothdilution microtiter tests.

For test [1], the system named is Haemophilus influenzae 76. The test can be described thus: standard agar-dilution MIC assay. It is filed as cell-based. The conditions noted are these: Haemophilus influenzae, 76. How it is done:
as §1

For test [2], the system named is Haemophilus influenzae C.L. The test can be described thus: standard agar-dilution MIC assay. The conditions noted are these: Haemophilus influenzae. It is filed as cell-based. How it is done:
as §1

In test [3] the test system is Klebsiella pneumoniae X68. The experiment in a line: standard agar-dilution MIC assay. The format is cell-based. As to conditions: Klebsiella pneumoniae, X68; agar-dilution; read-out: MIC. How it is done:
as §1

Test [4] deals with Pseudomonas aeruginosa X239. The experiment in a line: standard agar-dilution MIC assay. It is filed as cell-based. As to conditions: Pseudomonas aeruginosa, X239; agar-dilution; read-out: MIC. Here is the method: as §1
Test [5] concerns Staphylococcus aureus V41. The experiment in a line: standard agar-dilution MIC assay. The conditions noted are these: Staphylococcus aureus, V41. It is filed as cell-based. How it is done:
as §1

The test system of test [6] is Staphylococcus aureus X1.1. The test can be described thus: standard agar-dilution MIC assay. The conditions noted are these: Staphylococcus aureus, X1.1. It is filed as cell-based. How it is done:
as §1

For test [7], the system named is Staphylococcus aureus X400. The test can be described thus: standard agar-dilution MIC assay. The format is cell-based. As to conditions: Staphylococcus aureus, X400. How it is done:
as §1

Test [8] deals with Staphylococcus epidermidis 222. The experiment in a line: standard agar-dilution MIC assay. The format is cell-based. The conditions noted are these: Staphylococcus epidermidis, 222. How it is done: as §1
The test system of test [9] is Streptococcus Group D 2041. The experiment in a line: standard agar-dilution MIC assay. As to conditions: GROUPD2041. The format is cell-based. How it is done:
as §1

Test [10] relates to Streptococcus Group D X66. The test can be described thus: standard agar-dilution MIC assay. The format is cell-based. As to conditions: read-out: MIC. How it is done: as §1
For test [11], the system named is Streptococcus pyogenes C203. The test can be described thus: standard agar-dilution MIC assay. The format is cell-based. The conditions noted are these: Streptococcus pyogenes, C203. How it is done: as §1
In test [12] the test system is Staphylococcus aureus S13E. The experiment in a line: microbe, parasite or virus in culture. It is filed as cell-based. As to conditions: Staphylococcus aureus, S13E. Here is the method:
as §1

Test [13] relates to Streptococcus pneumoniae Park I. The experiment in a line: microbe, parasite or virus in culture. The format is cell-based. As to conditions: Streptococcus pneumoniae. Here is the method:
as §1

In test [14] the test system is Staphylococcus epidermidis EPI1. The experiment in a line: standard agar-dilution MIC assay. It is filed as cell-based. As to conditions: Staphylococcus epidermidis, EPI1. How it is done: as §1
The subject of test [15] is Streptococcus pyogenes C203. The experiment in a line: protection of mice experimentally infected with S. pyogenes C203. The format is in vivo. The conditions noted are these: mice, mg/kg × 2, doses given 1 and 4 hours postinfection, read-out: ED50. In a few lines: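 Activity is given as ED50, the mg/kg dose (×2) protecting half of the mice infected with S. pyogenes C203. Compound was dosed 1 and 4 h after infection.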

[16] abbreviates: agar-dilution, Ampicillin-resistant strain, read-out: MIC.
Setting [17] is: agar-dilution, Ampicillin-sensitive strain, read-out: MIC.

Molecules are shown by their SMILES. ≈ marks a conversion by molar mass, not a printed value. Read-outs that look alike come from different tables or passages of the source.

As for `CCC1OC(=O)CC(O)C(C)C(OC2OC(C)C(O)C(N(C)C)C2O)C(CCN2C[C@H](C)C[C@H](C)C2)CC(C)C(=O)C=CC(C)=CC1COC1OC(C)C=CC1OC` (stereo partly drawn) [Compound 45, 3",4"-Di(dehydrodeoxy)-20-deoxo-20-(cis-3,5-dimethylpiperidin-1-yl)-lactenocin], the MIC in the test with Escherichia coli EC14 was 64 µg/mL (≈ 77.9 µM); in test [1] it was 1 µg/mL (≈ 1.22 µM); in test [2], 1 µg/mL (≈ 1.22 µM); in test [3], 128 µg/mL (≈ 156 µM); in test [4], over 128 µg/mL; in test [5] (agar-dilution, Penicillin-resistant strain, read-out: MIC), 0.12 µg/mL (≈ 0.146 µM). The MIC stood at 0.12 µg/mL (≈ 0.146 µM) in [6] (agar-dilution, read-out: MIC); 0.06 µg/mL (≈ 0.0731 µM) in test [7] (agar-dilution, Methicillin-resistant strain, read-out: MIC); 0.12 µg/mL (≈ 0.146 µM) in [8] (agar-dilution, read-out: MIC); 0.5 µg/mL (≈ 0.609 µM) in test [9]; 0.25 µg/mL (≈ 0.304 µM) in [10]; 0.06 µg/mL (≈ 0.0731 µM) in test [11]. The MIC in test [12] and in test [13] was 0.06 µg/mL (≈ 0.0731 µM) each time.

For the compound `CCC1OC(=O)CC(O)C(C)C(OC2OC(C)C(O)C(N(C)C)C2O)C(CCOc2ccccc2)CC(C)C(=O)C=CC(C)=CC1COC1OC(C)C2OC(C)(C)OC2C1OC` (stereo not shown) [Compound 57, 20-DH-20-O-Phenyl-lactenocin-3",4"-isopropylidene Ketal], the MIC was over 128 µg/mL in the test with Escherichia coli EC14 (agar-dilution, read-out: MIC); over 128 µg/mL in test [1] (setting [16]); over 128 µg/mL in test [2] (setting [17]); over 128 µg/mL in test [3]; over 128 µg/mL in test [4]; 4 µg/mL (≈ 4.57 µM) in test [5]. Moreover, the MIC in [6] was 4 µg/mL (≈ 4.57 µM); in test [7] it was 4 µg/mL (≈ 4.57 µM); in [8] it was 2 µg/mL (≈ 2.28 µM); in test [14], 4 µg/mL (≈ 4.57 µM); in test [9], 64 µg/mL (≈ 73.1 µM); in [10] it was 32 µg/mL (≈ 36.5 µM). Further, the values for the MIC in [11], in test [12] and in [13] were 2 µg/mL (≈ 2.28 µM), 4 µg/mL (≈ 4.57 µM) and 8 µg/mL (≈ 9.13 µM), respectively.

`CCC1OC(=O)CC(O)C(C)C(OC2OC(C)C(O)C(N(C)C)C2O)C(CCOc2ccccc2)CC(C)C(=O)C=CC(C)=CC1COC1OC(C)C2OC(=S)OC2C1OC` (stereo not shown) [Compound 59, 20-DH-20-O-Phenyl-lactenocin 3",4"-thiocarbonate]: the MIC with Escherichia coli EC14 (agar-dilution, read-out: MIC) was over 128 µg/mL; in test [1] (setting [16]), 128 µg/mL (≈ 146 µM); in test [2] (setting [17]), 128 µg/mL (≈ 146 µM); in [3], over 128 µg/mL; in test [4], over 128 µg/mL; in test [5], 1 µg/mL (≈ 1.14 µM). The MIC in [6] worked out at 1 µg/mL (≈ 1.14 µM); in test [7], 1 µg/mL (≈ 1.14 µM); in test [8], 0.5 µg/mL (≈ 0.569 µM); in test [14], 2 µg/mL (≈ 2.28 µM); in test [9] it was 32 µg/mL (≈ 36.4 µM); in [10] it was 16 µg/mL (≈ 18.2 µM). The MIC was 2 µg/mL (≈ 2.28 µM) in [11], 1 µg/mL (≈ 1.14 µM) in [12] and 2 µg/mL (≈ 2.28 µM) in test [13]. Also, the ED50 in test [15] (C203, Oral) was found to be 54 mg/kg; in test [15] (C203, sc, Subcutaneous), 10 mg/kg.
